Results taken from patent publication US12448393B2, “Use of novel compound, for preventing, improving or treating amyotrophic lateral sclerosis” (PRG S&TECH INC., priority 2019, dated 2025).
“Also recorded” adds a separate entry of the source.

How the values were obtained:
SOD1 [1] = experiment: Western blot / native gel analysis of SOD1 aggregation; type: cell-based, human; details: Table 1; effect on SOD1 aggregation, native / non-SDS-PAGE gel
Procedure: Using RIPA buffer (50 mM Tris-Cl, pH 7.5, 150 mM NaCl, 1% NP-40, 0.1% SDS and […]) for SDS-PAGE and lysis buffer (50 mM Tris-Cl, pH 7.5, 150 mM NaCl, 0.3% NP-40) for Native-PAGE, proteins were extracted from cells. Samples were separated by the SDS-PAGE or the Native-PAGE and transferred to PVDF membrane. Blotted membrane was blocked with TBST buffer including 3% skim milk for 1 hour, and reacted with specific antibodies. The reacted antibodies were detected by ECL and X-ray film exposure. Antibodies used in the present disclosure are as follows: pan-SOD1 (GTX100554) was purchased from Genetex (California, USA). Misfolded SOD1-specific antibody (B8H10) was purchased from MediMabs (Montreal, Canada). Actin (sc-1616), GST (sc-138), and GFP (Green fluorescent protein; sc-8036) were purchased from Santa Cruz biotechnology (Santa Cruz, CA, USA). TDP-43 antibody (10782-2-AP) was purchased from Proteintech (Rosemont, IL, USA). Anti-FLAG (Sigma; F3165) was purchased from Sigma Aldrich (St, Louis, Mo, USA), and HRP-conjugated goat anti-mouse, goat anti-rabbit, and mouse anti-goat antibodies (Pierce, Thermo Fisher Scientific, Inc., Rockford, IL, USA) were used as secondary antibodies.
(§1) GFP-SOD1 (WT, G85R, G93A), non-tagged SOD1 (WT, A4V, G37R, G85R, G93A) and tdTomato-TDP43 expression vectors were purchased from Addgene (Cambridge, MA, USA). Transfection was performed using Jet-PEI reagent (JetPEI; Polyplus transfection, New York, NY, USA) according to the manufacturer's protocol. Briefly, vectors were mixed with JetPEI reagent in 150 mM NaCl buffer, and then mixture was reacted for 15 minutes. The mixture was added to cells in serum-free medium and reacted for 4 hours. After reaction, the cells were replaced with a culture medium supplemented with 10% FBS.

SOD1 [2] = experiment: Immunofluorescence staining of SOD1 aggregation and misfolded SOD1; type: cell-based, human; details: Table 1; IF staining of SOD1
Procedure: Cells on coverslip were washed with PBS, fixed with 4% PFA at room temperature for 30 minutes, and then infiltrated with 0.1% Triton X-100/PBS for 10 minutes. The cells were treated with blocking solution (anti-Human Antibody 1:500 dilution in PBS) for 1 hour, and then cells were reacted with anti-pan SOD1 (1:400 dilution), misfolded SOD1 (B8H10; 1:200 dilution in blocking solution) at 4° C. overnight. Finally, the cells were reacted with FITC and rhodamine-conjugated secondary antibody at 4° C. for 6 hours. Nuclei were stained with 4,6-diamidino-2-phenylindole (DAPI), and endoplasmic reticula (ERs) were stained with ER-Tracker Red dye for 10 minutes. The cells were washed 3 times with PBS, and then coverslips were mounted with mounting solution [H-5501; Vector Laboratories (Burlingame, CA, USA)] and analyzed by fluorescence microscopy (Zeiss).
as §1

[3] = test system: WT-SOD1 and mutant SOD1-GST (A4V, G37R, G85R, G93A); experiment: ELISA compound screening for binding inhibitor between WT-SOD1 and mutant SOD1; parameters: species or system human; details: Table 1; compounds at final concentration of 50 μM
Procedure: For compound screening, the present inventors applied an ELISA assay system. To select a binding inhibitor between WT-SOD1 and mutant SOD1, the present inventors used 0.5% paraformaldehyde (PFA) to fix WT-SOD1 recombinant protein on a 96-well plate. The plate was dried, washed with phosphate-buffered saline (PBS), and reacted with the compounds at a final concentration of 50 μM, and then mutant SOD1-GST (A4V, G37R, G85R, G93A) proteins were added. After 2 hours of reaction, the 96-well plate was washed with PBS and blocked with 3% skim milk to prevent non specific reaction. The plate was reacted with anti-GST antibody (diluted at 1:10,000) for 1 hour, and then reacted with anti-mouse IgG-HRP (diluted at 1:50,000) for 1 hour. After washing twice, the plate was reacted with a 3,3′,5,5′-tetramethylbenzidine (TMB) solution (Calbiochem) for 30 minutes and a stop solution (1N H2SO4) for 30 minutes. Finally, the present inventors analyzed values using an ELISA reader (450 nm absorbance). Negative control (−; red line) was reacted without mutant SOD1, and positive control (+; blue line) was reacted with mutant SOD1 without the compounds.
To prepare recombinant proteins, human SOD1 (WT, A4V, G37R, G85R, G93A) was added to EcoRI and HindIII sites of pGEX-TEV vector, an improved vector made by adding a TEV protease cleavage site to pGEX-4T1 (Invitrogen). The recombinant proteins were expressed as GST-fusion proteins in Escherichia coli (E. coli) strain BL21 (DE3). The proteins were purified by glutathione-affinity chromatography.

SOD1^G93A-Tg mice = experiment: In vivo drug treatment of ALS model mice (grip strength, behaviour, histology, survival); parameters: species or system mouse; details: for effects in ALS model mice: FIGS. 11A and 11B, summary statements; for In vivo: Table 1, ALS model mice
Procedure: An experiment was performed in a facility approved by the Association for Laboratory Animal Care Assessment and Accreditation in accordance with the animal policy approved by Busan National University. B6SJL-Tg (SOD1^G93A) mice were purchased from Jackson Laboratory (Stock No: 002726). All mice were maintained under temperature and light-controlled conditions (20˜23° C., light-dark cycle 12 hr-12 hr) and were provided with sterile food and water.
Vehicle (DMSO) and SLC-B036 (10 mg/kg, 20 mg/kg) were administered to 12-week-old or 14-week-old SOD1^G93A mice via intraperitoneal injection twice weekly for 6 weeks. Control mice were treated under the same conditions. For histological analysis, mice were sacrificed at 18 weeks. After dissection of mice, spinal cord was fixed with 4% paraformaldehyde for 48 hours according to basic tissue processing procedures, and embedded in a paraffin block. An embedded tissue (cervical region of the spinal cord) was cut into 5 μm with a Leica microtome, and transferred to an adhesive-coated slide (Marienfeld laboratory glassware, Germany). After deparaffinization and rehydration, the slide was stained with hematoxylin and eosin to determine the number of spinal nerves.
For behavioral experiment, grip strength was checked every 2 weeks using a grip strength meter. The mice were allowed to grasp a tension bar with their forelimbs, and then their tails were slowly pulled until they released the bar. To observe motility, respiration, and quadriplegia of the mice, image analysis was performed at the end of administration (18-20 weeks).

normal human fibroblasts = experiment: Cell viability measurement (MTT), normal fibroblasts; type: cell-based; details: for cytotoxic effect in normal fibroblasts: MTT, FIG. 4E, FIG. 9B; for Toxicity (MTT): Table 1, cell type not given, neurons (FIG. 9A) and normal fibroblasts (FIG. 9B)
Procedure: (§2) HEK293 cells were purchased from American Type Culture Collection (ATCC, Manassas, VA, USA) and maintained at 37° C. and 5% CO2 in DMEM liquid medium including 10% fetal bovine serum and 1% penicillin-streptomycin. SK—N—SH cells were purchased from Korean Cell Line Bank (KCLB, Seoul, South Korea) and maintained in MEM medium including 10% fetal bovine serum, 1% antibiotic, 25 mM HEPES, and 300 mg/L L-Glu. Human fibroblasts (person) were purchased from Coriell Cell Repositories (New Jersey, USA) and maintained in EMEM including 15% FBS, 2 mM Glutamine, and 26 mM HEPES without antibiotics. Thapsigargin (ER calcium scavenger: CAS 67526-95-8) was purchased from Calbiochem (Darmstadt, Germany). CoCl2 (hypoxia-inducer: C8661) was purchased from Sigma Aldrich (St, Louis, Mo, USA).
(§3) To check cells viability, the cells were reacted with 0.5 mg/ml MTT solution (475989; Merck, Darmstadt, Germany) at 37° C. for 4 hours. After removing residual solution and washing with PBS, precipitate was dissolved in 200 μl DMSO, and quantified by measuring absorbance at 540 nm.

neurons = experiment: Cell viability measurement (MTT), neurons; type: cell-based; details: FIG. 9A
Procedure: as §2, §3

[4] = Pharmacokinetics (PK) analysis; type: in vivo; details: for PK study BA: Table 1

| Structure (SMILES) | Western Blot (SOD1 [1]) | Immuno-fluorscence (SOD1 [2]) | ELISA [3] | effects in ALS model mice (SOD1^G93A-Tg mice) | In vivo (SOD1^G93A-Tg mice) | cytotoxic effect in normal fibroblasts (normal human fibroblasts) | Toxicity (MTT) (normal human fibroblasts) | cytotoxicity in neurons (neurons) | PK study BA [4] | PK profile ([4]; FIG. 10) |
| --- | --- | --- | --- | --- | --- | --- | --- | --- | --- | --- |
| COc1cc(/C=C/CO[C@H]2Cc3cc4ccc(=O)oc4cc3OC2(C)C)ccc1O [PRG-A-02, (S,E)-7-((3-(4-hydroxy-3-methoxyphenyl)allyl)oxy)-8,8-dimethyl-7,8-dihydro-2H,6H-pyrano[3,2-g]chromen-2-one] | Effect ○ | Effect ○ | Effect ○ | good effects | Effect ○ | did not exhibit cytotoxicity | No | did not exhibit cytotoxicity | (0.3%) | – |
| CC1(C)Oc2cc3oc(=O)ccc3cc2C[C@@H]1OC(=O)/C=C/c1ccc(F)cc1 [PRG-A-03, (S)-8,8-dimethyl-2-oxo-7,8-dihydro-2H,6H-pyrano[3,2-g]chromen-7-yl (E)-3-(4-fluorophenyl) acrylate] | Effect ○ | Effect ○ | Effect ○ | good effects | Effect ○ | did not exhibit cytotoxicity | No | did not exhibit cytotoxicity | (3.7%) | – |
| COc1cc(/C=C/CO[C@H]2Cc3cc4ccc(=O)oc4cc3OC2(C)C)ccc1[N+](=O)[O-] [PRG-A-04, (S,E)-7-((3-(3-methoxy-4-nitrophenyl)allyl)oxy)-8,8-dimethyl-7,8-dihydro-2H,6H-pyrano[3,2-g]chromen-2-one] | Effect ○ | Effect ○ | Effect ○ | Excellent effects; also recorded: good effects | Effect ○ | did not exhibit cytotoxicity | No | did not exhibit cytotoxicity | 60.7% | appropriate PK profile |
